Measured values taken from patent publication US10619138B2, “Herbicide-resistant hydroxyphenylpyruvate dioxygenases” (BASF SE, priority 2013, dated 2020).
Several values for one entry are separate records, joined by “and”; a condition that tells them apart may be missing. Equal values may be shown once.

How the values were obtained:
[1] = system: Microscilla HPPD (SEQ ID NO: 20); test: In vitro HPPD activity assay, tolerance index; type: biochemical, Microscilla marina; settings: normalized on Arabidopsis wild-type HPPD
Procedure: (§1) The activity assay for HPPD is based on the analysis of homogentisic acid by reversed phase HPLC.
(§2) The assay mixture can contain 150 mM potassium phosphate buffer pH 7.0, 50 mM L-ascorbic acid, 100 μM Catalase (Sigma-Aldrich), 1 μM FeSO4 and 0.2 units of purified HPPD enzyme in a total volume of 505 μl. 1 unit is defined as the amount of enzyme that is required to produce 1 nmol of HGA per minute at 20° C.
(§3) The reaction is allowed to proceed for 45 min at room temperature. The reaction is stopped by the addition of 50 μl of 4.5 M phosphoric acid. The sample is filtered using a […] pore size PVDF filtration device.
(§4) 5 μl of the cleared sample is analyzed on an UPLC HSS T3 column (particle size 1.8 μm, dimensions 2.1×50 mm; Waters) by isocratic elution using 90% 20 mM NaH2PO4 pH 2.2, 10% methanol (v/v).
(§5) HGA is detected electrochemically at 750 mV (mode: DC; polarity: positive) and quantified by integrating peak areas (Empower software; Waters).
(§6) Inhibitors are dissolved in DMSO (dimethylsulfoxide) to a concentration of 0.5 mM. From this stock solution serial five-fold dilutions are prepared in DMSO, which are used in the assay. The respective inhibitor solution accounts for 1% of the assay volume. Thus, final inhibitor concentrations range from 5 μM to 320 pM, respectively. Activities are normalized by setting the uninhibited enzyme activity to 100%. IC50 values are calculated using non-linear regression.
(§7) Using methods which are described in the above examples or well known in the art, purified, recombinant wildtype HPPD enzymes are characterized with respect to their kinetic properties and sensitivity towards HPPD inhibiting herbicides. Apparent michaelis constants (Km) and maximal reaction velocities (Vmax) are calculated by non-linear regression with the software GraphPad Prism 5 (GraphPad Software, La Jolla, USA) using a substrate inhibition model. […] Weighted means (by standard error) of Km and IC50 values are calculated from at least three independent experiments. The Cheng-Prusoff equation for competitive inhibition (Cheng, Y. C.; Prusoff, W. H. Biochem Pharmacol 1973, 22, 3099-3108) is used to calculate dissociation constants (Ki).
(§8) Field performance of the HPPD enzyme, which is used as a herbicide tolerance trait may depend not only on its lack of sensitivity towards HPPD inhibiting herbicides but also on its activity. To assess the potential performance of a herbicide tolerance trait a tolerance index (TI) is calculated using the following formula: […]
(§9) Easy comparison and ranking of each trait is enabled by normalizing tolerance indexes on Arabidopsis wild-type HPPD.

[2] = system: Acidobacterium HPPD (SEQ ID NO: 30); test: In vitro HPPD activity assay, tolerance index; type: biochemical, Acidobacterium capsulatum; settings: normalized on Arabidopsis wild-type HPPD
Procedure: as §1, §2, §3, §4, §5, §6, §7, §8, §9

[3] = system: Algoriphagus HPPD (SEQ ID NO: 22); test: In vitro HPPD activity assay, tolerance index; type: biochemical, Algoriphagus machipongonensis; settings: normalized on Arabidopsis wild-type HPPD
Procedure: as §1, §2, §3, §4, §5, §6, §7, §8, §9

[4] = molecular target: T1, Arabidopsis HPPD (SEQ ID NO: 42) (Arabidopsis thaliana, UniProt P93836); test: In vitro HPPD activity assay (HGA by HPLC), wildtype enzyme characterization; type: biochemical; settings: for TI (normalized tolerance index): normalized on Arabidopsis wild-type HPPD, reference enzyme
T1 construct: Arabidopsis (42); His tag; made in house; host or cells: E. coli BL21 (DE3)
T1 sequence (P93836 1-445): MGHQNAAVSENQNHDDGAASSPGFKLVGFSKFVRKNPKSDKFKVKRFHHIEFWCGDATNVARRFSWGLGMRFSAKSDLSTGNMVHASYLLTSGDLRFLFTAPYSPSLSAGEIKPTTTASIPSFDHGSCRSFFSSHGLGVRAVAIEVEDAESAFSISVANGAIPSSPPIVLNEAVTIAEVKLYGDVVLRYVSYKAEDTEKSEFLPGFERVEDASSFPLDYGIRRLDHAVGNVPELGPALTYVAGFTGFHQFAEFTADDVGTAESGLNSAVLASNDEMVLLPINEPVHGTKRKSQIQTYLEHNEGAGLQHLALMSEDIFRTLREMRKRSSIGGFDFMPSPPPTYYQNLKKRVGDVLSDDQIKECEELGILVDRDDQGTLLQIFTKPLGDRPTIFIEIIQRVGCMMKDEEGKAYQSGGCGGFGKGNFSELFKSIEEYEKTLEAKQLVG
Procedure: as §1, §2, §3, §4, §5
Inhibitors are dissolved in DMSO (dimethylsulfoxide) to a concentration of 0.5 mM. From this stock solution serial five-fold dilutions are prepared in DMSO, which are used in the assay. The respective inhibitor solution accounts for 1% of the assay volume. […] Activities are normalized by setting the uninhibited enzyme activity to 100%. IC50 values are calculated using non-linear regression.
Using methods which are described in the above examples or well known in the art, purified, recombinant wildtype HPPD enzymes are characterized with respect to their kinetic properties and sensitivity towards HPPD inhibiting herbicides. Apparent michaelis constants (Km) and maximal reaction velocities (Vmax) are calculated by non-linear regression with the software GraphPad Prism 5 (GraphPad Software, La Jolla, USA) using a substrate inhibition model. […] Weighted means (by standard error) of Km and IC50 values are calculated from at least three independent experiments.
as §8, §9

[5] = system: Mucilaginibacter HPPD (SEQ ID NO: 28); test: In vitro HPPD activity assay, tolerance index; type: biochemical, Mucilaginibacter paludis; settings: normalized on Arabidopsis wild-type HPPD
Procedure: as §1, §2, §3, §4, §5, §6, §7, §8, §9

[6] = system: Pontibacter HPPD (SEQ ID NO: 16); test: In vitro HPPD activity assay, tolerance index; type: biochemical, Pontibacter sp.; settings: normalized on Arabidopsis wild-type HPPD
Procedure: as §1, §2, §3, §4, §5, §6, §7, §8, §9

[7] = system: transgenic Arabidopsis plants expressing Acidobacterium HPPD; test: Greenhouse herbicide spray test, transgenic plants (T2); type: in vivo, Arabidopsis thaliana; settings: two weeks after treatment
Excerpt: (§10) Additionally, T1 and T2 transgenic Arabidopsis plants can be tested for improved tolerance to HPPD-inhibiting herbicides in greenhouse studies. Herbicide injury scoring is done 2-3 weeks after treatment and is rated on a scale of 0 to 100%, 0% being no injury and 100% being complete death.
(§11) Transgenic Arabidopsis plants were sprayed with a range of doses from 1.56-50 g/ha with HPPD-inhibiting herbicides and injury evaluations were taken two weeks after treatment. […] As depicted in Table 6, control plants are severely injured by all doses of herbicide applied, with at least 70% of leaf material being damaged at the lowest application rate. For example, transgenic plants expressing Scenedesmus HPPD have an excellent tolerance to all herbidcides tested. […] After application of Inhibitor 2, only 18% of leaf material was damaged resulting in a 5-fold tolerance compared to the WT at the highest application rate.

[8] = system: transgenic Arabidopsis plants expressing Scenedesmus HPPD; test: as above; type: in vivo, Arabidopsis thaliana; settings: two weeks after treatment
Excerpt: as §10, §11

[9] = system: transgenic Arabidopsis plants expressing Algoriphagus HPPD; test: as above; type: in vivo, Arabidopsis thaliana; settings: two weeks after treatment
Excerpt: as §10, §11

[10] = system: untransformed wild-type (WT) Arabidopsis plants; test: Greenhouse herbicide spray test, wild-type plants; type: in vivo, Arabidopsis thaliana; settings: two weeks after treatment, mean of three plants
Excerpt: as §10, §11

[11] = system: Herpetosiphon HPPD (SEQ ID NO: 26); test: In vitro HPPD activity assay, tolerance index; type: biochemical, Herpetosiphon aurantiacus; settings: normalized on Arabidopsis wild-type HPPD
Procedure: as §1, §2, §3, §4, §5, §6, §7, §8, §9

[12] = system: Geodermatophilus HPPD (SEQ ID NO: 32); test: In vitro HPPD activity assay, tolerance index; type: biochemical, Geodermatophilus obscurus; settings: normalized on Arabidopsis wild-type HPPD
Procedure: as §1, §2, §3, §4, §5, §6, §7, §8, §9

Compound: CC1=NOC(c2c(Cl)ccc(C3=C(O)c4ncccc4C(C)(C)S3(=O)=O)c2Cl)C1 (centres unmarked) [Inhibitor 7, 7-[2,4-dichloro-3-(3-methyl-4,5-dihydroisoxazol-5-yl)phenyl]-5,5-dimethyl-6,6-dioxo-thiopyrano[4,3-b]pyridin-8-ol]
- TI (normalized tolerance index) [1]: 337.7
- TI (normalized tolerance index) [2]: 239 and 238.9
- TI (normalized tolerance index) [3]: 448 and 447.5
- TI (normalized tolerance index) [4]: 1
- TI (normalized tolerance index) [5]: 62.6
- TI (normalized tolerance index) [6]: 107.7

Compound: Cc1c(C(=O)c2cnn(C)c2O)ccc(S(C)(=O)=O)c1C1=NOCC1 [Inhibitor 1, [3-(4,5-dihydroisoxazol-3-yl)-2-methyl-4-methylsulfonyl-phenyl]-(5-hydroxy-1-methyl-pyrazol-4-yl)methanone]
- TI (normalized tolerance index) [1]: 9.1
- Injury evaluation, scale 0-100% ([7]; Acidobacterium HPPD Event 1, 1.56 g/ha): 43%
- Injury evaluation, scale 0-100% ([7]; Acidobacterium HPPD Event 1, 3.125 g/ha): 78%
- Injury evaluation, scale 0-100% ([7]; Acidobacterium HPPD Event 1, 6.25 g/ha): 94%
- Injury evaluation, scale 0-100% ([7]; Acidobacterium HPPD Event 2, 1.56 g/ha): 48%
- Injury evaluation, scale 0-100% ([7]; Acidobacterium HPPD Event 2, 3.125 g/ha): 78%
- Injury evaluation, scale 0-100% ([7]; Acidobacterium HPPD Event 2, 6.25 g/ha): 97%
- Injury evaluation, scale 0-100% ([8]; Scenedesmus HPPD Event 1, 1.56 g/ha): 35%
- Injury evaluation, scale 0-100% ([8]; Scenedesmus HPPD Event 1, 3.125 g/ha): 58%
- Injury evaluation, scale 0-100% ([8]; Scenedesmus HPPD Event 1, 6.25 g/ha): 68%
- Injury evaluation, scale 0-100% ([8]; Scenedesmus HPPD Event 2, 1.56 g/ha): 45%
- Injury evaluation, scale 0-100% ([8]; Scenedesmus HPPD Event 2, 3.125 g/ha): 55%
- Injury evaluation, scale 0-100% ([8]; Scenedesmus HPPD Event 2, 6.25 g/ha): 65%
- Injury evaluation, scale 0-100% ([9]; Algoriphagus HPPD Event 1, 1.56 g/ha): 60%
- Injury evaluation, scale 0-100% ([9]; Algoriphagus HPPD Event 1, 3.125 g/ha): 70%
- Injury evaluation, scale 0-100% ([9]; Algoriphagus HPPD Event 1, 6.25 g/ha): 90%
- Injury evaluation, scale 0-100% ([9]; Algoriphagus HPPD Event 2, 1.56 g/ha): 48%
- Injury evaluation, scale 0-100% ([9]; Algoriphagus HPPD Event 2, 3.125 g/ha): 68%
- Injury evaluation, scale 0-100% ([9]; Algoriphagus HPPD Event 2, 6.25 g/ha): 78%
- Injury evaluation, scale 0-100% ([10]; 1.56 g/ha): 88%
- Injury evaluation, scale 0-100% ([10]; 3.125 g/ha): 90%
- Injury evaluation, scale 0-100% ([10]; 6.25 g/ha): 90%
- TI (normalized tolerance index) [2]: 22 and 21.9
- TI (normalized tolerance index) [3]: 23.7
- Ki [4]: 0.95 nM
- TI (normalized tolerance index) [4]: 1
- TI (tolerance index) ([4]; not normalized): 0.95E−3
- TI (normalized tolerance index) [5]: 56.8
- TI (normalized tolerance index) [6]: 5.3

Compound: CC1(C)c2cccnc2C(O)=C(c2c(F)ccc(Cl)c2Br)S1(=O)=O [Inhibitor 9, 7-(2-bromo-3-chloro-6-fluoro-phenyl)-5,5-dimethyl-6,6-dioxo-thiopyrano[4,3-b]pyridin-8-ol]
- TI (normalized tolerance index) [1]: 22.8
- TI (normalized tolerance index) [2]: 20 and 20.2
- TI (normalized tolerance index) [3]: 42.8
- TI (normalized tolerance index) [11]: tolerant
- TI (normalized tolerance index) [12]: tolerant
- TI (normalized tolerance index) [4]: 1
- TI (normalized tolerance index) [6]: 3.9

Compound: Cc1nonc1NC(=O)c1ccc(S(C)(=O)=O)c(S(C)(=O)=O)c1C [Inhibitor 10, 2-methyl-N-(4-methyl-1,2,5-oxadiazol-3-yl)-3,4-bis(methylsulfonyl)benzamide]
- TI (normalized tolerance index) [1]: 8.3
- TI (normalized tolerance index) [3]: 19
- TI (normalized tolerance index) [4]: 1
- TI (normalized tolerance index) [5]: 34.1
- TI (normalized tolerance index) [6]: 6

Compound: CC1(C)c2cccnc2C(O)=C(c2ccc(Cl)nc2Cl)S1(=O)=O [Inhibitor 8, 7-(2,6-dichloro-3-pyridyl)-5,5-dimethyl-6,6-dioxo-thiopyrano[4,3-b]pyridin-8-ol]
- TI (normalized tolerance index) [1]: 65.9
- TI (normalized tolerance index) [2]: 35 and 34.6
- TI (normalized tolerance index) [3]: 73.7
- TI (normalized tolerance index) [4]: 1
- TI (normalized tolerance index) [5]: 26
- TI (normalized tolerance index) [6]: 13.7
